In patent publication US20130131075A1, “NEW COMPOUNDS” (Boehringer Ingelheim International GmbH, priority 2009, published 2013) one finds inhibition and Ki data, which are given here for 56 compounds.

In this experiment the target is T1, cynomolgus BK1-receptor (Macaca fascicularis, UniProt Q3BCU0).
T1 construct: expressed in transfected cells; host or cells: CHO cells (homogenate)
T1 sequence (Q3BCU0 1-352): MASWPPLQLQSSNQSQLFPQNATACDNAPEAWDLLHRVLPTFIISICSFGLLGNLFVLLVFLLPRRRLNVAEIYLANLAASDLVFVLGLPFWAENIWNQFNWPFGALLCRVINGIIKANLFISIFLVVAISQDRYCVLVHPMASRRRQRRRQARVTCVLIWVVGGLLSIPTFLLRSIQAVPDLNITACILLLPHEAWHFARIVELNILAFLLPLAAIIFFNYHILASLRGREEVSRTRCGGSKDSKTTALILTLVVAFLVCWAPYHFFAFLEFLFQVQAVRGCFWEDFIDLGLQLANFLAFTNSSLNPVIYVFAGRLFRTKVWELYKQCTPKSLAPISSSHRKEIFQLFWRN
Kind of experiment: cynoBK1-receptor binding assay. The conditions noted are these: CHO cells expressing cynomolgus BK1-receptor, radioligand kallidine (DesArg10,Leu9); for inhibition at 10 µM: at 10 μgmol/L. How it is done:
Description of the Method of Binding the cynoBK1-Receptor
CHO cells that express the cynomolgus BK1-receptor are cultivated in “HAM'S F-12 Medium”. The medium is removed from confluent cultures, the cells are washed with PBS buffer, scraped off or detached using Versene and isolated by centrifuging. Then the cells are homogenised in suspension, the homogenate is centrifuged and resuspended. After the protein content has been determined 200 μl of the homogenate (50 to 250 μg protein/assay) are incubated for 60-180 minutes at ambient temperature with 0.5 to 5.0 nM kallidine (DesArg10,Leu9), [3,4-Prolyl-3,43H(N)] and increasing concentrations of the test substance in a total volume of 250 μl. The incubation is stopped by rapid filtration through GF/B glass fibre filters that have been pre-treated with polyethyleneimine (0.3%). The radioactivity bound to the protein is measured with a TopCount NXT. The radioactivity bound in the presence of 1.0 μM kallidine (DesArg10) is defined as non-specific binding. The concentration binding curve may be analysed using computer-aided non-linear curve fitting to determine the corresponding Ki value for the test substance.
Test results of the cynoBK1-receptor binding assay: […]

Some results are limits rather than exact numbers.

What is called inhibition is the drop in the measured response relative to a control, in per cent. For the compound `O=C(NC1(C(=O)NCc2ccc(Nc3cccc(Cl)c3Cl)cc2)CC1)c1cncnc1` [(1)], the inhibition at 10 µM came to 54%. One may read the Ki as the dissociation constant of the complex between target and ligand, obtained from inhibition or displacement. A lower Ki goes with higher affinity. As for `O=C(NC1(C(=O)NCc2ccc(Nc3ccccc3Cl)cc2)CC1)c1cncnc1` [(2)], the Ki was 25 nM and the inhibition at 10 µM was determined as 100%. For `O=C(NC1(C(=O)NCc2ccc(Nc3ccccc3)cc2)CC1)c1cncnc1` [(3)], the inhibition at 10 µM is 65%. Consider `O=C(NC1(C(=O)NCc2ccc(Nc3ccccc3C(F)(F)F)cc2)CC1)c1cncnc1` [(4)], for which the inhibition at 10 µM was found to be 109%. Take `O=C1CCC(C(=O)NC2(C(=O)NCc3ccc(Nc4ccccc4C(F)(F)F)cc3)CC2)N1` (stereo not shown) [(5)]: the inhibition at 10 µM stood at 88%. With `CN(C)CCCC(=O)NC1(C(=O)NCc2ccc(Nc3ccccc3C(F)(F)F)cc2)CC1` [(6)], the inhibition at 10 µM is 59%.

In the case of `O=C(CC(F)(F)F)NC1(C(=O)NCc2ccc(Nc3ccccc3C(F)(F)F)cc2)CC1` [(7)], the inhibition at 10 µM came to 100%.

Take `CN(C)CCC(=O)NC1(C(=O)NCc2ccc(Nc3ccccc3C(F)(F)F)cc2)CC1` [(8)]: the inhibition at 10 µM came out at 75%. The same measure, in the same setting: next, `O=C(NC1(C(=O)NCc2ccc(Nc3ccccc3C(F)(F)F)cc2)CC1)c1cnc(O)nc1O` [(9)]: 78%; `CN(C)CCCCC(=O)NC1(C(=O)NCc2ccc(Nc3ccccc3C(F)(F)F)cc2)CC1` [(10)]: 58%; `O=C(NC1(C(=O)NCc2ccc(Nc3ccccc3C(F)(F)F)cc2)CC1)c1cccnc1` [(11)]: 99%. For `CN(C)CC(=O)NC1(C(=O)NCc2ccc(Nc3ccccc3C(F)(F)F)cc2)CC1` [(12)], the inhibition at 10 µM was determined as 78%. In the case of `CCC(=O)NC1(C(=O)NCc2ccc(Nc3ccccc3C(F)(F)F)cc2)CC1` [(13)], the inhibition at 10 µM was 101%. Turning to `COCC(=O)NC1(C(=O)NCc2ccc(Nc3ccccc3C(F)(F)F)cc2)CC1` [(14)], the inhibition at 10 µM came to 84%. `O=C(NC1(C(=O)NCc2ccc(Nc3ccccc3C(F)(F)F)cc2)CC1)C1CC1` [(15)]: the inhibition at 10 µM amounted to 99%. Same read-out and setting: next, `CCCCC(=O)NC1(C(=O)NCc2ccc(Nc3ccccc3C(F)(F)F)cc2)CC1` [(16)]: 91%; `Cn1cnc(C(=O)NC2(C(=O)NCc3ccc(Nc4ccccc4C(F)(F)F)cc3)CC2)c1` [(17)]: 75%. With `Cn1ccnc1C(=O)NC1(C(=O)NCc2ccc(Nc3ccccc3C(F)(F)F)cc2)CC1` [(18)], the inhibition at 10 µM is 67%. With `O=C(CC1CC1)NC1(C(=O)NCc2ccc(Nc3ccccc3C(F)(F)F)cc2)CC1` [(19)], the inhibition at 10 µM stood at 96%. Consider `O=C(NC1(C(=O)NCc2ccc(Nc3ccccc3C(F)(F)F)cc2)CC1)c1ccccc1` [(20)], for which the inhibition at 10 µM amounted to 81%. Consider `O=C(NC1(C(=O)NCc2ccc(Nc3ccccc3C(F)(F)F)cc2)CC1)c1ccccn1` [(21)], for which the inhibition at 10 µM turned out to be 68%.

For the compound `CN1CCC(C(=O)NC2(C(=O)NCc3ccc(Nc4ccccc4C(F)(F)F)cc3)CC2)CC1` [(22)], the inhibition at 10 µM turned out to be 60%. With `O=C(NC1(C(=O)NCc2ccc(Nc3ccccc3C(F)(F)F)cc2)CC1)C(F)(F)F` [(23)], the inhibition at 10 µM was 110%. On the same count and under the same terms, next, `O=C(NC1(C(=O)NCc2ccc(Nc3ccccc3C(F)(F)F)cc2)CC1)c1ccno1` [(24)]: 107%. With `CC(NC(=O)C1(NC(=O)c2cncnc2)CC1)c1ccc(Nc2ccc(OC(F)F)cc2)cc1` (stereo not shown) [(25)], the inhibition at 10 µM was found to be 86%.

For `O=C(NC1(C(=O)NCc2ccc(Nc3ccccc3C(F)(F)F)cc2)CC1)c1cncc(C(F)(F)F)c1` [(26)], the inhibition at 10 µM amounted to 109%. Consider `Cc1nnc(C(=O)NC2(C(=O)NCc3ccc(Nc4ccccc4C(F)(F)F)cc3)CC2)o1` [(27)], for which the inhibition at 10 µM came out at 104%. Consider `O=C(NC1(C(=O)NCc2ccc(Nc3ccc(F)cc3C(F)(F)F)cc2)CC1)c1cncs1` [(29)], for which the Ki stood at 6.2 nM and the inhibition at 10 µM stood at 113%. For `O=C(CC(F)(F)F)NC1(C(=O)NCc2ccc(Nc3ccc(F)cc3C(F)(F)F)cc2)CC1` [(30)], in that order: 13 nM and 111%. Regarding `O=C(NC1(C(=O)NCc2ccc(Nc3ccc(F)cc3C(F)(F)F)cc2)CC1)c1ccno1` [(31)], the affinity corresponds to a Ki of 13 nM and the inhibition at 10 µM is 112%. Consider `CS(=O)(=O)c1ccc(Nc2ccc(CNC(=O)C3(NC(=O)c4cncnc4)CC3)cc2)c(C(F)(F)F)c1` [(32)], for which the Ki amounted to 200 nM and the inhibition at 10 µM turned out to be 93%. For `O=C(NC1(C(=O)NCc2ccc(Nc3ccc(F)cc3C(F)(F)F)cc2)CC1)c1cncnc1` [(33)], in that order: 1.9 nM and 110%. For the compound `O=C(Cc1cncnc1)NC1(C(=O)NCc2ccc(Nc3ccccc3C(F)(F)F)cc2)CC1` [(34)], the Ki is over 500 nM and the inhibition at 10 µM came to 94%. For `N#Cc1ccccc1Nc1ccc(CNC(=O)C2(NC(=O)c3cncnc3)CC2)cc1` [(35)], in that order: 70 nM and 111%. For `N#Cc1cc(F)ccc1Nc1ccc(CNC(=O)C2(NC(=O)c3cncnc3)CC2)cc1` [(36)], the affinity, expressed as Ki, was 21 nM and the inhibition at 10 µM stood at 113%. For `O=C(NC1(C(=O)NCc2ccc(Nc3ccc(F)cc3)cc2)CC1)c1cncnc1` [(37)], in that order: over 500 nM and 77%. As to `O=C(NC1(C(=O)NCc2ccc(Nc3ccccc3C(F)(F)F)cn2)CC1)c1cncnc1` [(39)], the affinity corresponds to a Ki of 5.5 nM and the inhibition at 10 µM was determined as 110%. On to `CC(NC(=O)C1(NC(=O)c2cncnc2)CC1)c1ccc(Nc2ccccc2C(F)(F)F)cn1` (stereo not shown) [(40)], for which the affinity, expressed as Ki, was 2.9 nM and the inhibition at 10 µM stood at 110%. The matching figures for `O=C(NC1(C(=O)NCc2ccc(Nc3ccc(F)cc3C(F)(F)F)cn2)CC1)c1cncnc1` [(41)]: 2.6 nM and 108%. Turning to `O=C(NC1(C(=O)NCc2ccc(Nc3cc(F)ccc3C(F)(F)F)cn2)CC1)c1cncnc1` [(42)], the inhibition at 10 µM was determined as 89%. Turning to `O=C(N[C@@]1(C(=O)NCc2ccc(Nc3ccc(F)cc3C(F)(F)F)cn2)CCOC1)c1cncnc1` [(43)], the Ki is 36 nM and the inhibition at 10 µM came out at 94%. As for `O=C(NC1(C(=O)NCc2ccc(Nc3c(F)cccc3C(F)(F)F)cn2)CC1)c1cncnc1` [(44)], the affinity corresponds to a Ki of 7 nM and the inhibition at 10 µM came out at 109%. For the compound `CC(NC(=O)C1(NC(=O)c2cncnc2)CC1)c1ccc(Nc2ccc(F)cc2C(F)(F)F)cn1` (stereo not shown) [(45)], the Ki turned out to be 2 nM and the inhibition at 10 µM amounted to 104%. For `O=C(N[C@@]1(C(=O)NCc2ccc(Nc3c(F)cccc3C(F)(F)F)cn2)CCOC1)c1cncnc1` [(46)], the Ki came to 290 nM and the inhibition at 10 µM stood at 88%.

Consider `CC(NC(=O)[C@]1(NC(=O)c2cncnc2)CCOC1)c1ccc(Nc2ccc(F)cc2C(F)(F)F)cn1` (stereo partly shown) [(47)], for which the Ki stood at 39 nM and the inhibition at 10 µM stood at 94%. On to `O=C(N[C@@]1(C(=O)NCc2ccc(Nc3cc(F)ccc3C(F)(F)F)cn2)CCOC1)c1cncnc1` [(48)], for which the inhibition at 10 µM worked out at 71%. Turning to `Cc1cccc(C(F)(F)F)c1Nc1ccc(CNC(=O)C2(NC(=O)c3cncnc3)CC2)nc1` [(49)], the Ki was found to be 365 nM and the inhibition at 10 µM is 103%. As for `COc1ccc(Nc2ccc(CNC(=O)C3(NC(=O)c4cncnc4)CC3)nc2)c(C(F)(F)F)c1` [(50)], affinity was put at a Ki of 0.7 nM and the inhibition at 10 µM was determined as 115%. On to `Cc1ccc(Nc2ccc(CNC(=O)C3(NC(=O)c4cncnc4)CC3)nc2)c(C(F)(F)F)c1` [(51)], for which affinity was put at a Ki of 38 nM and the inhibition at 10 µM is 112%.

`O=C(NC1(C(=O)NCc2ccc(Nc3ccc(C(F)(F)F)cc3C(F)(F)F)cn2)CC1)c1cncnc1` [(52)]: the Ki came out at 312 nM and the inhibition at 10 µM came to 63%. As to `Cc1cc(Br)ccc1Nc1ccc(CNC(=O)C2(NC(=O)c3cncnc3)CC2)nc1` [(53)], the inhibition constant (Ki) was found to be 197 nM and the inhibition at 10 µM stood at 101%. For `O=C(NC1(C(=O)NCc2ccc(Nc3ccc(Br)cc3C(F)(F)F)cn2)CC1)c1cncnc1` [(54)], the Ki stood at 3.8 nM and the inhibition at 10 µM was 112%.

In the case of `O=C(NC1(C(=O)NCc2ccc(Nc3ccc(Cl)cc3C(F)(F)F)cn2)CC1)c1cncnc1` [(55)], affinity was put at a Ki of 3.3 nM and the inhibition at 10 µM was found to be 108%. On to `O=C1CCC(C(=O)N[C@@]2(C(=O)NCc3ccc(Nc4ccccc4C(F)(F)F)cc3)CCOC2)N1` (stereo partly shown) [(56)], for which the inhibition at 10 µM stood at 99%. For `Nc1ccc(C(=O)N[C@@]2(C(=O)NCc3ccc(Nc4ccccc4C(F)(F)F)cc3)CCOC2)cn1` [(57)], the inhibition constant (Ki) came to 77 nM and the inhibition at 10 µM came to 111%. For `Cc1ccc(C(=O)N[C@@]2(C(=O)NCc3ccc(Nc4ccccc4C(F)(F)F)cc3)CCOC2)cn1` [(58)], the inhibition at 10 µM amounted to 109%.
